Experimental findings from US20250163104A1, “MACROCYCLIC IMMUNOMODULATORS” (priority 2021, published 2025) are described below.

pIC50: −log10 of the molar value. Where a SMILES comes first, the peptide text is derived from it. Bridges are numbered along the chain shown (N, C = ends). [ ]: non-standard residue; d: D form. The star is where a group is joined. ξ: configuration not given here. Phe(4-COOH) = N[C@@H](Cc1ccc(C(=O)O)cc1)C(=O)O; Bip = N[C@@H](Cc1ccc(-c2ccccc2)cc1)C(=O)O; Phe(3-OMe) = COc1cccc(C[C@H](N)C(=O)O)c1; Phe(3-Me) = Cc1cccc(C[C@H](N)C(=O)O)c1; mTyr = N[C@@H](Cc1cccc(O)c1)C(=O)O; 4Pal = N[C@@H](Cc1ccncc1)C(=O)O; Cha = N[C@@H](CC1CCCCC1)C(=O)O; Cit = NC(=O)NCCC[C@H](N)C(=O)O; dCha = N[C@H](CC1CCCCC1)C(=O)O; Thr(3ξ) = CC(O)[C@H](N)C(=O)O; dNle = CCCC[C@@H](N)C(=O)O; Carboxymethyl = O=C(O)C*; Orn = NCCC[C@H](N)C(=O)O; Dab = NCC[C@H](N)C(=O)O; Dap = NC[C@H](N)C(=O)O

The assay concerns the target T1, human PD-1 / PD-L1-Ig binding on Jurkat cell line over-expressing human PD-1 (Jurkat-PD-1) (Homo sapiens, UniProt Q15116).
T1 construct: expressed in transfected cells; host or cells: Jurkat
Kind of assay: Jurkat-PD-1 Cell Binding High-Content Screening Assay (CBA). It is filed as cell-based. Particulars: Jurkat-PD-1 cells, PE-labeled PD-L1-Ig 20 nM final; read-out: Jurkat HPD1_PDL1 IC50. In short, it runs like this: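 PE-PD-L1-Ig 20 nM final; cells in DMEM/10% FCS; cpd pre-incubation 2 h, 37° C; ligand 1 h; PFA fix + Hoechst 33342; high-content imaging read-out.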

T1 sequence (Q15116 25-288): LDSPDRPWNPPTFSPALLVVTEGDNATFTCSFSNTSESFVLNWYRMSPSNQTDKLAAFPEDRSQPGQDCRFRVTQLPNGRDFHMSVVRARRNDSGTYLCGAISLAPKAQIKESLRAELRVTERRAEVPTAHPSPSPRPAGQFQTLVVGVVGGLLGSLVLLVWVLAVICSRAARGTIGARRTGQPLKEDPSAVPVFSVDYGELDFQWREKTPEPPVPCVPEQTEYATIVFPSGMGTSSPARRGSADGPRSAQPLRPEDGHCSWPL

For `CC(C)C[C@@H]1NC(=O)[C@H](CCCCN)NC(=O)[C@@H](CC(C)C)NC(=O)[C@H](CCN)NC(=O)[C@H](Cc2cnc[nH]2)NC(=O)[C@H](Cc2ccc(-c3ccccc3)cc2)NC(=O)[C@H](C(C)C)NC(=O)[C@H](Cc2c[nH]c3ccccc23)NC(=O)[C@H](CC(=O)O)NC(=O)[C@H](Cc2ccc(O)cc2)NC(=O)[C@H](CC(N)=O)NC(=O)CSC[C@@H](C(=O)N[C@@H](C)C(N)=O)NC(=O)[C@H](CO)NC(=O)[C@H](C(C)C)NC1=O` [Compound 1138] ({CH2CO}-NYDWV[Bip]H[Dab][dL]KLVSCA-NH2; thioether N-14), the negative-log IC50 (pIC50) was 7.71. Turning to `CC(C)C[C@@H]1NC(=O)[C@H](CCN)NC(=O)[C@@H](CC(C)C)NC(=O)[C@H](CCCN)NC(=O)[C@H](CCCNC(N)=O)NC(=O)[C@H](Cc2ccc(-c3ccccc3)cc2)NC(=O)[C@H](C(C)C)NC(=O)[C@H](Cc2c[nH]c3ccccc23)NC(=O)[C@H](CC(N)=O)NC(=O)[C@H](Cc2ccc(O)cc2)NC(=O)[C@H](CN)NC(=O)CSC[C@@H](C(=O)N[C@@H](C)C(N)=O)NC(=O)[C@H]([C@@H](C)O)NC(=O)[C@H](C(C)C)NC1=O` [Compound 1088] ({CH2CO}-[Dap]YNWV[Bip][Cit][Orn][dL][Dab]LVTCA-NH2; thioether N-14), the pIC50 is 7.63.

Turning to `CCCC[C@@H]1NC(=O)[C@H](CCN)NC(=O)[C@@H](CC(C)C)NC(=O)[C@H](CCCN)NC(=O)[C@H]([C@@H](C)CC)NC(=O)[C@H](Cc2ccc(-c3ccccc3)cc2)NC(=O)[C@H](C(C)C)NC(=O)[C@H](Cc2cccc(C)c2)NC(=O)[C@H](CC(=O)O)NC(=O)[C@H](Cc2ccc(C(=O)O)cc2)NC(=O)[C@H](CN)NC(=O)CSC[C@@H](C(=O)N[C@@H](C)C(N)=O)NC(=O)[C@H]([C@@H](C)O)NC(=O)[C@H](C(C)C)NC1=O` [Compound 1203], the negative-log IC50 (pIC50) is 7.32.

`CC(C)C[C@H]1NC(=O)[C@H](CCCN)NC(=O)[C@H](CCC(=O)O)NC(=O)[C@H](Cc2ccc(-c3ccccc3)cc2)NC(=O)[C@H](C(C)C)NC(=O)[C@H](Cc2c[nH]c3ccccc23)NC(=O)[C@H](CC(=O)O)NC(=O)[C@H](Cc2ccc(OCC(=O)O)cc2)NC(=O)[C@H](CN)NC(=O)CSC[C@@H](C(=O)N[C@@H](C)C(N)=O)NC(=O)[C@H]([C@@H](C)O)NC(=O)[C@H](C(C)C)NC(=O)[C@H](Cc2cccc(O)c2)NC(=O)[C@H](CCN)NC1=O` [Compound 1475] ({CH2CO}-[Dap]Y(Carboxymethyl)DWV[Bip]E[Orn][dL][Dab][mTyr]VTCA-NH2; thioether N-14): the pIC50 was 6.92.

With `CCCC[C@H]1NC(=O)[C@H](CCCN)NC(=O)[C@H]([C@@H](C)CC)NC(=O)[C@H](Cc2ccc(-c3ccccc3)cc2)NC(=O)[C@H](C(C)C)NC(=O)[C@H](Cc2c[nH]c3ccccc23)NC(=O)[C@H](CC(=O)O)NC(=O)[C@H](Cc2ccncc2)NC(=O)[C@H](CN)NC(=O)CSC[C@@H](C(=O)N[C@@H](C)C(N)=O)NC(=O)[C@H]([C@@H](C)O)NC(=O)[C@H](C(C)C)NC(=O)[C@H](CC2CCCCC2)NC(=O)[C@H](CCN)NC1=O` [Compound 1711] ({CH2CO}-[Dap][4Pal]DWV[Bip]I[Orn][dNle][Dab][Cha]VTCA-NH2; thioether N-14), the negative-log IC50 (pIC50) was 7.89. Consider `CC(C)C[C@H]1NC(=O)[C@H](CCCN)NC(=O)[C@H](C(C)C)NC(=O)[C@H](Cc2ccc(-c3ccccc3)cc2)NC(=O)[C@H](C(C)C)NC(=O)[C@H](Cc2c[nH]c3ccccc23)NC(=O)[C@H](CC(=O)O)NC(=O)[C@H](Cc2ccc(C(=O)O)cc2)NC(=O)[C@H](Cc2ccc(OCC(=O)O)cc2)NC(=O)CSC[C@@H](C(=O)N[C@@H](C)C(N)=O)NC(=O)[C@H]([C@@H](C)O)NC(=O)[C@H](C(C)C)NC(=O)[C@H](Cc2cccc(F)c2)NC(=O)[C@H](CCN)NC1=O` [Compound 1673], for which the negative logarithm of the IC50 (pIC50) was 7.87.

As to `CC(C)[C@@H]1NC(=O)[C@H](Cc2c[nH]c3ccccc23)NC(=O)[C@H](CC(=O)O)NC(=O)[C@H](Cc2ccncc2)NC(=O)[C@H](CN)NC(=O)CSC[C@@H](C(=O)N[C@@H](C)C(N)=O)NC(=O)[C@H]([C@@H](C)O)NC(=O)[C@H](C(C)C)NC(=O)[C@H](CC2CCCCC2)NC(=O)[C@H](CCN)NC(=O)[C@@H](CC2CCCCC2)NC(=O)[C@H](CCCN)NC(=O)[C@H](C(C)C)NC(=O)[C@H](Cc2ccc(-c3ccccc3)cc2)NC1=O` [Compound 1638] ({CH2CO}-[Dap][4Pal]DWV[Bip]V[Orn][dCha][Dab][Cha]VTCA-NH2; thioether N-14), the negative logarithm of the IC50 (pIC50) was 7.54.

For `CC[C@H](C)[C@@H]1NC(=O)[C@H](Cc2ccc(-c3ccccc3)cc2)NC(=O)[C@H](C(C)C)NC(=O)[C@H](Cc2c[nH]c3ccccc23)NC(=O)[C@H](CC(=O)O)NC(=O)[C@H](Cc2ccc(O)cc2)NC(=O)[C@H](CC(N)=O)NC(=O)CSC[C@@H](C(=O)NCC(N)=O)NC(=O)[C@H]([C@@H](C)O)NC(=O)[C@H](C(C)C)NC(=O)[C@H](CC(C)C)NC(=O)[C@H](CCCCN)NC(=O)[C@@H](CC(C)C)NC(=O)[C@H](CCCN)NC1=O` [Compound 1131] ({CH2CO}-NYDWV[Bip]I[Orn][dL]KLVTCG-NH2; thioether N-14), the pIC50 was 7.61. To `CC(C)[C@@H]1NC(=O)[C@H](Cc2c[nH]c3ccccc23)NC(=O)[C@H](CC(=O)O)NC(=O)[C@H](Cc2ccc(C(=O)O)cc2)NC(=O)[C@H](Cc2ccncc2)NC(=O)CSC[C@@H](C(=O)N[C@@H](C)C(N)=O)NC(=O)[C@H]([C@@H](C)O)NC(=O)[C@H](C(C)C)NC(=O)[C@H](CC2CCCCC2)NC(=O)[C@H](CCN)NC(=O)[C@@H](CC2CCCCC2)NC(=O)[C@H](CCCN)NC(=O)[C@H](C(C)C)NC(=O)[C@H](Cc2ccc(-c3ccccc3)cc2)NC1=O` [Compound 1632] ({CH2CO}-[4Pal][Phe(4-COOH)]DWV[Bip]V[Orn][dCha][Dab][Cha]VTCA-NH2; thioether N-14) belongs 7.81; to `CC(C)C[C@H]1NC(=O)[C@H](CCCN)NC(=O)[C@H](C(C)C)NC(=O)[C@H](Cc2ccc(-c3ccccc3)cc2)NC(=O)[C@H](C(C)C)NC(=O)[C@H](Cc2c[nH]c3ccccc23)NC(=O)[C@H](CC(=O)O)NC(=O)[C@H](Cc2ccc(O)cc2)NC(=O)[C@H](C(C)O)NC(=O)CSC[C@@H](C(=O)N[C@@H](CC(N)=O)C(N)=O)NC(=O)[C@H](C(C)O)NC(=O)[C@H](C(C)C)NC(=O)[C@H](CC2CCCCC2)NC(=O)[C@H](CCN)NC1=O` (stereo partly drawn) [Compound 2549] ({CH2CO}-[Thr(3ξ)]YDWV[Bip]V[Orn][dL][Dab][Cha]V[Thr(3ξ)]CN-NH2; thioether N-14), 7.90. Take `COc1cccc(C[C@@H]2NC(=O)[C@H](CCN)NC(=O)[C@@H](CC(C)C)NC(=O)[C@H](CCCN)NC(=O)[C@H](CCC(=O)O)NC(=O)[C@H](Cc3ccc(-c4ccccc4)cc3)NC(=O)[C@H](C(C)C)NC(=O)[C@H](Cc3c[nH]c4ccccc34)NC(=O)[C@H](CC(=O)O)NC(=O)[C@H](Cc3ccc(OCC(=O)O)cc3)NC(=O)[C@H](CN)NC(=O)CSC[C@@H](C(=O)N[C@@H](C)C(N)=O)NC(=O)[C@H]([C@@H](C)O)NC(=O)[C@H](C(C)C)NC2=O)c1` [Compound 1469] ({CH2CO}-[Dap]Y(Carboxymethyl)DWV[Bip]E[Orn][dL][Dab][Phe(3-OMe)]VTCA-NH2; thioether N-14): the negative-log IC50 (pIC50) was 7.53. To `CCC(C)[C@@H]1NC(=O)[C@H](Cc2ccc(-c3ccccc3)cc2)NC(=O)[C@H](C(C)C)NC(=O)[C@H](Cc2c[nH]c3ccccc23)NC(=O)[C@H](CC(=O)O)NC(=O)[C@H](Cc2ccc(OCC(=O)O)cc2)NC(=O)[C@H](Cc2cccc3ccccc23)NC(=O)CSC[C@@H](C(=O)N[C@@H](C)C(N)=O)NC(=O)[C@H](C(C)O)NC(=O)[C@H](C(C)C)NC(=O)[C@H](CC2CCCCC2)NC(=O)[C@H](CCN)NC(=O)[C@@H](CC(C)C)NC(=O)[C@H](CCCN)NC1=O` (stereo partly drawn) [Compound 2521] belongs 7.42.

`Cc1cccc(C[C@@H]2NC(=O)[C@H](CC(=O)O)NC(=O)[C@H](Cc3ccc(C(=O)O)cc3)NC(=O)[C@H](Cc3ccc(OCC(=O)O)cc3)NC(=O)CSC[C@@H](C(=O)N[C@H](Cc3ccc(O)cc3)C(=O)O)NC(=O)[C@H](CCCN)NC(=O)[C@H](C(C)C)NC(=O)[C@H](CC3CCCCC3)NC(=O)[C@H](CCN)NC(=O)[C@@H](CC(C)C)NC(=O)[C@H](CCN)NC(=O)[C@H](C(C)C)NC(=O)[C@H](Cc3ccc(-c4ccccc4)cc3)NC(=O)[C@H](C(C)C)NC2=O)c1` [Compound 2589] ({CH2CO}-Y(Carboxymethyl)[Phe(4-COOH)]D[Phe(3-Me)]V[Bip]V[Dab][dL][Dab][Cha]V[Orn]C[dY]-OH; thioether N-14): the pIC50 is 7.46. As for `CC(C)C[C@@H]1NC(=O)[C@H](Cc2c[nH]c3ccccc23)NC(=O)[C@H](CC(=O)O)NC(=O)[C@H](Cc2ccncc2)NC(=O)[C@H](Cc2ccc(OCC(=O)O)cc2)NC(=O)CSC[C@@H](C(=O)NCC(N)=O)NC(=O)[C@H](CO)NC(=O)[C@H](C(C)C)NC(=O)[C@H](CC2CCCCC2)NC(=O)[C@H](CC(N)=O)NC(=O)[C@@H](CC(C)C)NC(=O)[C@H](CCCN)NC(=O)[C@H](C(C)C)NC(=O)[C@H](Cc2ccc(-c3ccccc3)cc2)NC1=O` [Compound 1338] ({CH2CO}-Y(Carboxymethyl)[4Pal]DWL[Bip]V[Orn][dL]N[Cha]VSCG-NH2; thioether N-14), the pIC50 was 7.42. To `CC(C)C[C@H]1NC(=O)[C@H](CCCN)NC(=O)[C@H](C(C)C)NC(=O)[C@H](Cc2ccc(-c3ccccc3)cc2)NC(=O)[C@H](C(C)C)NC(=O)[C@H](Cc2c[nH]c3ccccc23)NC(=O)[C@H](CC(=O)O)NC(=O)[C@H](Cc2ccc(O)cc2)NC(=O)[C@H](CCCNC(=N)N)NC(=O)CSC[C@@H](C(=O)N[C@@H](C)C(N)=O)NC(=O)[C@H](C(C)O)NC(=O)[C@H](C(C)C)NC(=O)[C@H](CC2CCCCC2)NC(=O)[C@H](CCN)NC1=O` (stereo partly drawn) [Compound 2524] ({CH2CO}-RYDWV[Bip]V[Orn][dL][Dab][Cha]V[Thr(3ξ)]CA-NH2; thioether N-14) belongs 7.91.
